These results are taken from patent US9447418B2, “Pro- and anti-angiogenic treatments” (UNIVERSITY OF BRISTOL, priority 2007, dated 2016).

Holding throughout (type): cell-based, human
In test [1] the test system is VEGF terminal exon splice site selection. The experiment in a line: Western blotting of podocyte cell lysate. As to the method: (§1) Proliferating Conditionally Immortalized Podocytes (PCIPs) were derived from cell lines conditionally transformed from normal human podocytes with temperature-sensitive mutant of immortalized SV-40 (Simian Virus 40) T-antigen. At the permissive temperature of 33° C. the SV-40 T-antigen is active and allows the cells to proliferate rapidly (46). PCIPs were cultured in T75 flasks (Greiner) in RPMI-1640® cell culture medium (Sigma) with 10% FBS (Foetal Bovine Serum), 1% ITS (Insulin Transferrin Selenium) (Sigma), 0.5% PSS (Penicillin Streptomycin Solution) (Sigma) and grown to 95% confluency. Then cells were split to six well plates (1×10^4 cells per well) and grown until 95% confluent.
We investigated time- and dose-dependent effects of Insulin-like Growth Factor 1 (IGF-1), Transforming Growth Factor β1 (TGF-β1) and Platelet-Derived Growth Factor (PDGF) on production of VEGF isoforms from cultured PCIPs. Twenty-four hours before treatment cultured medium was replaced with serum free RPMI-1654 medium (Sigma) containing 1% ITS (Sigma) and 0.5% PSS (Sigma). […]
Protein samples were dissolved in Laemmli buffer, boiled for 3-4 min and centrifuged for 2 min at 20,000 g to remove insoluble materials. […] The immunoreactive bands corresponding to panVEGF and VEGFxxxb in each treatment were quantified by ImageJ analysis and normalised to those of β-tubulin.
In general terms: A western blot detects proteins with antibodies after separation by electrophoresis.

The test system is the same in test [2]. The experiment in a line: VEGF isoform ELISA of podocytes (PCIP) after growth factor / inhibitor treatment. The settings on record: for increase of VEGFxxxb protein level / increase of total VEGF protein expression: 48 h. The protocol:
as §1
We investigated time- and dose-dependent effects of Insulin-like Growth Factor 1 (IGF-1), Transforming Growth Factor β1 (TGF-β1) and Platelet-Derived Growth Factor (PDGF) on production of VEGF isoforms from cultured PCIPs. Twenty-four hours before treatment cultured medium was replaced with serum free RPMI-1654 medium (Sigma) containing 1% ITS (Sigma) and 0.5% PSS (Sigma). Subsequently, the medium was replaced with fresh serum free RPMI-1654 medium (Sigma) containing 1% ITS (Sigma), 0.5% PSS (Sigma) and increasing concentrations of IGF-1 (Sigma), or TGF-β1 (Sigma) or 40 ng/mL PDGF (Sigma). The conditioned media were collected 24 or 48 hours after stimulation (IGF-1, TGF-β1) and 48 hours (PDGF).
(§2) Total VEGF concentrations in the neat RPE conditioned medium were measured using a standard DuoSet VEGF ELISA (R&D) according to manufacture's instruction. VEGFxxxb was determined with a similar sandwich ELISA, using for capture a monoclonal biotinylated mouse anti-human antibody raised against the terminal nine amino acids of VEGF165b (R&D Systems Cat No. MVRL56/1) and a standard curve for this assay built with recombinant human VEGF165b (R&D). This MVRL56/1 antibody is a commercially available affinity purified mouse monoclonal IgG1 antibody, that has been characterised previously (42, 54).
(An ELISA detects its analyte on a solid surface through an enzyme-linked reagent.)

Test [3] has the same test system. The test is described as follows: RT-PCR of podocyte mRNA for proximal (VEGFxxx) and distal (VEGFxxxb) spliced isoforms. The following applies: podocytes; for TGF-β1 induced VEGFxxxb expression, effect of inhibitor: FIG. 6; for TGF-β1 mediated increased intensity of the VEGFxxxb band (RT-PCR), effect of inhibitor: confirmed by Western blotting and ELISA. As to the method: To confirm that the changes seen by TGF-β1 were at the mRNA level, and the effect of inhibitors acted at the mRNA level, real time polymerase chain reaction (RT-PCR) was carried out using primers that detect both proximal splice isoforms (VEGFxxx, 135 bp band) and distal spliced isoforms (VEGFxxxb, 74 bp band). […] This increase in intensity was inhibited by SB203820, but not by the p42/p44MAPK inhibitor PD98059. […] These findings were confirmed by Western blotting (FIG. 5B) and ELISA (FIG. 5C).

Test [4] shares this test system. The test is described as follows: VEGF isoform ELISA of RPE cells after agonist stimulation (IGF-1, TNF-α). As to the method: Human donor eyes were obtained within 10-30 hours post-mortem from Bristol Eye Bank, Bristol, United Kingdom. Choroid-RPE sheets dissected from ocular globes were fragmented in a small amount of Dulbecco's Modification of Eagle's Medium: Ham's F12 mixture (DMEM: F12) (1:1)+GlutaMAX® supplement (Gibco) and RPE cells were isolated by digestion with 0.3 mg/ml collagenase (Gibco) for 15 min at 37° C. RPE cells were initially cultured for 5 days in the presence of 2.5% v/v foetal bovine serum (FBS) (Gibco) to prevent proliferation of fibroblasts and until the cell cultures became established. After the first passage cell culture was maintained in DMEM:F12 (1:1), supplemented with 10% v/v FBS and antibiotic/antimycotic solution (Sigma). The once passaged cells were homogeneous and contained only RPE as characterized by immunhistochemistry with anti-cytokeratin monoclonal antibody (Sigma). Cultures of RPE were routinely subcultured by trypsinisation (trypsin/EDTA, Sigma). RPE cells at passage 3-4 were plated onto 12.5 cm^2 Petri dishes (Nunc) and allowed to reach 70-80% confluency.
(§3) To determine the effects of agonists the RPE cells were cultured in freshly-replaced medium in the absence of FBS for 24 hours prior to agonist stimulation. IGF-1 (Sigma) and TNF-α (Sigma) were prepared in serum-free medium and were added in the volume of 2 ml at various concentrations, as indicated in the discussion below. No changes in cell morphology were noted on visualisation of the cells after stimulation. 24 hours later conditioned media in all experimental treatments were collected, spun down to remove debris, and placed immediately into −80° C. until the enzyme-linked immuno-sorbent assay (ELISA) was performed. The RPE cells were washed 3 times with ice-cold PBS and lysed in Laemmli buffer for Western blotting.
as §2
Due to relatively low levels of VEGFxxxb found free in the supernatant of RPE cells, for VEGFxxxb ELISA total protein in conditioned medium was precipitated with trichloroacetic acid (TCA). For this purpose 250 μl ice cold 24% TCA and 6.25 μl 2% Sodium Deoxycholate were added to 700 μl conditioned medium and left on ice for 15 min. After centrifugation at 5000×g for 10 min, pellets were collected and resuspended in lysis buffer, containing: 20 mM Tris, pH7.4, 1.5% w/v Triton X-100, 150 mM NaCl, 10% w/v glycerol and protease inhibitors cocktail (Sigma). The pH in the pelleted samples was adjusted to 7.4 with 1.5M Tris (pH8.8). The total protein content in the pellet was measured in conventional manner using bicinchoninic acid (BCA) reagent (Sigma).

For test [5] the test system is unchanged. The test is described as follows: IGF-induced proximal splicing (PSS) in podocytes by RT-PCR and ELISA. The settings on record: for IGF-induced increase in PSS, effect of inhibitor: podocytes. From the text: Treatment of podocytes with IGF increases PSS as evidenced by RT-PCR and ELISA. This increase is inhibited by the PKC inhibitor BIM and the SR protein kinase inhibitor SERPIN340 (FIGS. 12 and 13).

Test [6] shares this test system. The experiment in a line: Western blotting of RPE cells after IGF-1. The protocol:
as §3
Protein samples were dissolved in Laemmli buffer, boiled for 3-4 min and centrifuged for 2 min at 20,000 g to remove insoluble materials. 15 μg protein per lane were separated by Sodium Dodecyl Sulfate Polyacrylamide Gel Electrophoresis (SDS/PAGE) (12%) and transferred to 0.2 μm nitrocellulose membrane. […] Subsequently the membranes were incubated with secondary horseradish peroxidase (HRP) conjugated antibody, and immunoreactive bands were visualised using enhanced chemiluminescence (ECL) reagent (Pierce). […]

The mark [7] stands for this setting: podocytes, IGF-1, compared with control (FIG. 2B).
The mark [8] stands for this setting: RT-PCR and ELISA (FIGS. 12 and 13).

For “TGF-β1: Transforming Growth Factor β1 (Sigma), growth factor favouring distal splice site selection”, the “VEGF165b and VEGF121b isoforms by Western blotting” value in test [1] (podocyte cell lysate, 0.5 and 1 nM TGF-β1 (FIG. 4B)) is listed as “upregulated”. In addition, in test [2] (podocytes, 1 nM TGF-β), the “fall of VEGFxxx expression levels” value is 70±7%. In test [2] (podocytes, TGF-β1 0.5 nM), the “increase of VEGFxxxb protein level” value is given as 2.9±1.4 fold and the “increase of total VEGF protein expression” value was found to be 2.25±0.65 fold. In test [2] (podocytes, TGF-β1 1 nM), the “increase of VEGFxxxb protein level” value worked out at 7.2±4.7 fold and the “increase of total VEGF protein expression” value is listed as 4.63±0.61 fold. Moreover, in test [3] (TGF-β1 1 nM), the “relative density of the lower, VEGFxxxb, band (RT-PCR)” value is reported as “increase”.
On to “IGF-1: Insulin-like Growth Factor 1 (Sigma), growth factor favouring proximal splice site selection”, for which the “share of VEGF produced as VEGFxxxb” value in test [4] (RPE cells after IGF-1 treatment, originally 80±32%) was determined as 5±20%. In test [4] (RPE cells, 100 nM IGF-1, N=6, untreated 217±112), this molecule showed a VEGFtotal of 1656±448 pg/mg protein. The VEGFxxxb in test [4] (RPE cells, 100 nM IGF-1, untreated 78±12) amounted to 64±14 pg/mg protein. Besides, the VEGFxxx in test [4] (RPE cells, 100 nM IGF-1, untreated 138±117) amounted to 1592 pg/mg protein. The “proximal splice site selection (PSS)” value in test [5] (podocytes treated with IGF, RT-PCR and ELISA (FIGS. 12 and 13)) is given as “increases”. In test [2] (setting [7]), the VEGF165b levels result is “decrease” and the “total VEGF levels” value is recorded as “significant increase”. Besides, the “VEGF165b by Western blotting” value in test [6] (100 nM IGF (FIG. 3A)) is listed as “downregulated”. In test [6] (100 nM IGF, β-actin loading control (FIG. 3B)), the “total VEGF relative to loading control by Western blotting” value is on record as “increase”.
As to TNF-α, the “decrease of VEGFxxxb isoforms” value in test [4] (RPE cells, 50 ng/ml TNF-α) is 46±3%. For the same molecule, the “mean increase of VEGFxxx isoforms” value in test [4] (RPE cells, 50 ng/ml TNF-α, n=3) was 4.5±2.0 fold. The same molecule showed a VEGFxxx isoforms in test [4] (RPE cells, 50 ng/ml TNF-α, n=3, untreated 182±83) of 825±366 pg/mg protein. The same molecule yielded a VEGFxxxb isoforms in test [4] (RPE cells, 50 ng/ml TNF-α, untreated 99±26) of 42±13 pg/mg protein.
As for bisindolyl maleimide [BIM], the “IGF-induced increase in PSS, effect of inhibitor” value in test [5] (setting [8]) is “inhibited”. Also, in test [5] (summary statement), the VEGF isoform favoured entry is “favoured VEGF165b”.
Consider `COc1cccc(-c2cc(=O)c3ccccc3o2)c1N` [PD98059], for which the “TGF-β1 induced VEGFxxxb expression, effect of inhibitor” value in test [3] is given as “not affected”.
For `CCN1/C(=C/C(C)=O)Sc2ccc(OC)cc21` [TG003], the “TGF-β1 induced VEGFxxxb expression, effect of inhibitor” value in test [3] was “inhibited”. Besides, the “TGF-β1 mediated increased intensity of the VEGFxxxb band (RT-PCR), effect of inhibitor” value in test [3] (TGF-β1 1 nM) is on record as “inhibited”.
Regarding `C[S+]([O-])c1ccc(-c2nc(-c3ccncc3)c(-c3ccc(F)cc3)[nH]2)cc1` (stereo not shown) [SB203580, reference compound], in test [1] (podocytes (FIG. 5C)), the “TGF-β1 upregulation of VEGF165b by Western blotting, effect of inhibitor” value was “inhibited”. For the same molecule, the “TGF-β effect on expression of VEGFxxxb or VEGFxxx isoforms in presence of inhibitor” value in test [2] (podocytes (FIG. 5B)) is on record as “did not increase expression”. The “expression of VEGFxxx isoforms” value in test [2] (podocytes treated with SB203580, below the detection limit) was “did not increase”. In addition, the VEGF165b expression in test [2] (podocytes treated with SB203580, untreated 850±50 pg/mg protein (FIG. 5A)) amounted to 450 ± 80 pg/mg. Further, in test [3] (TGF-β1 1 nM), the “TGF-β1 mediated increased intensity of the VEGFxxxb band (RT-PCR), effect of inhibitor” value is “inhibited”.
For `O=C(Nc1cc(C(F)(F)F)ccc1N1CCCCC1)c1ccncc1` [SERPIN340], the “IGF-induced increase in PSS, effect of inhibitor” value in test [5] (setting [8]) is “inhibited”.
